Data from publication PMC6896158, “Enzymatic Characterization of Wild-Type and Mutant Janus Kinase 1” (Cancers, 2019).
Read-outs that look alike come from different tables or passages of the source.

Columns and labels:
[1] = biological target: IFNλR (Homo sapiens) (UniProt Q8IU57); conditions: cited from earlier work
[2] = biological target: T1, JAK1 FERM-SH2 domain (Homo sapiens, UniProt P23458); assay: Isothermal titration calorimetry of IFNλR Box1/Box2 peptide binding; conditions: peptide of IFNλR Box1 and Box2 motifs (human residues K250 - T299)
T1 construct: FERM-SH2 domains, 25-559; His tag (TEV-cleavable) (N, cleaved yes); made in house; host or cells: Sf21 insect cells (baculovirus)
From the text: We considered the possibility that the pseudokinase and kinase domains of JAK may affect the binding of JAK to the cytokine receptor (either directly or allosterically), as well as the possibility that the V658F mutation might exert its oncogenic effect by influencing the interaction of JAK with receptor. […] We performed isothermal titration calorimetry (ITC) to determine the affinity of a peptide representing the IFNλR Box1 and Box2 motifs (human residues K250 - T299). […] However, there was no significant effect on receptor binding between the wild-type and mutant forms of the enzyme.

[3] = test system: JAK1 wild-type and V658F; assay: Steady-state kinetics in the presence and absence of IFNλR peptide; format: biochemical, human; conditions: 2 µM IFNλR peptide
Description: Receptor-binding is an important regulator of the activity of JAK in vivo and may be required in order for the V658F mutation to induce constitutive activity. Although we cannot include full-length receptor constructs in these assays we were able to include a peptide fragment that represents the box1/2 motifs. Therefore, we performed steady-state kinetics using JAK1 wild-type and V658F in the presence and absence of saturating concentrations of the IFNλR peptide.
The 10 µL reaction mix contained 0.5 µL 20× Kinase Assay Buffer, 1 µCi γ-^32P-ATP and varying concentrations of ATP, STAT5b peptide, and inhibitor, as described for each experiment. Reactions were started with the addition of 5 µL JAK solution, with concentration as described for each experiment. After incubation at room temperature for 20–60 min, a 3.5 µL reaction mix was spotted onto P81 phosphocellulose paper (Dr. J. Oakhill, SVIMR. Australia) and the paper was placed into 5% (v/v) H3PO4. […] The plate was scanned using a Typhoon FLA 7000 phosphorimager (GE Life Sciences, Chicago, IL, USA) and the incorporated radioactivity of each spot was quantitated using ImageQuant TL software (GE Life Sciences). The background radioactivity, quantified from an area of the paper without reaction mix, was subtracted from that for the experimental spots.

[4] = biological target: JAK1 V658F (Homo sapiens, UniProt P23458, V658F); assay: Kinase assay with titration of itacitinib (γ-32P-ATP, STAT5b peptide); format: biochemical; conditions: V658F constructs (pseudokinase-kinase, full length); Ki=IC50/(1+S/KM)
Description: (§1) To our knowledge, it is unknown whether small-molecule JAK inhibitors bind the wild-type and mutant forms of the enzyme with equal affinity. Therefore, the inhibition constant (Ki) for Itacitinib was determined. JAK1 activity was measured by kinase assay in the presence of increasing concentrations of Itacitinib.
(§2) The 10 µL reaction mix contained 0.5 µL 20× Kinase Assay Buffer, 1 µCi γ-^32P-ATP and varying concentrations of ATP, STAT5b peptide, and inhibitor, as described for each experiment. Reactions were started with the addition of 5 µL JAK solution, with concentration as described for each experiment. After incubation at room temperature for 20–60 min, a 3.5 µL reaction mix was spotted onto P81 phosphocellulose paper (Dr. J. Oakhill, SVIMR. Australia) and the paper was placed into 5% (v/v) H3PO4. Paper was washed 4 × 15 min with 100 mL 5% (v/v) H3PO4, followed by 1 × 1 min with acetone. Paper was dried and exposed to a phosphorimager plate overnight. The plate was scanned using a Typhoon FLA 7000 phosphorimager (GE Life Sciences, Chicago, IL, USA) and the incorporated radioactivity of each spot was quantitated using ImageQuant TL software (GE Life Sciences). The background radioactivity, quantified from an area of the paper without reaction mix, was subtracted from that for the experimental spots. […]

[5] = biological target: JAK1 (wild type constructs) (Homo sapiens, UniProt P23458); assay: as above; format: biochemical; conditions: all wild type constructs (kinase domain, pseudokinase-kinase, full length); Ki=IC50/(1+S/KM)
Description: as §1, §2

[6] = biological target: JAK1 constructs (Homo sapiens, UniProt P23458); assay: Thermal shift assay (SYPRO orange); format: binding; conditions: all constructs containing a kinase domain
Description: To determine whether the V658F mutation affects protein stability we performed thermal shift assays on all the JAK constructs in the presence and absence of various cofactors that bind the kinase domain. SYPRO orange, which fluoresces when bound to hydrophobic residues, was added to a solution of protein and ligand. Fluorescence was measured as the temperature of the solution was increased, with increased fluorescence indicating the unfolding of the protein. The melting temperature (Tm) is represented by the inflection point of the fluorescence curve, with a higher Tm indicating greater thermal stability.
JAKs of 3–5 µg were diluted into the JAK Gel Filtration Buffer with 0.04× SYPRO orange, 4% (v/v) DMSO plus either 20 mM EDTA, 1 mM ATP and 2 mM MgCl2, or 6 µM itacitinib, and with or without 5 µM receptor peptide. The temperature was raised in 1 °C per min steps from 25 °C to 80 °C and fluorescence readings at 530 nm were taken at each interval. Sigmoidal curves were fitted to the fluorescence data to provide Tm values for each experiment.

[7] = biological target: T2, JAK1 (Homo sapiens, UniProt P23458); assay: Steady-state kinetics, kinase activity assay (KM for ATP and STAT5b peptide); format: biochemical; conditions: 6 mM peptide substrate, read-out: KM, app (ATP)
T2 construct: full length, 25-1154; His tag (TEV-cleavable) (N, cleaved yes); made in house; host or cells: Sf21 insect cells (baculovirus)

[8] = biological target: T3, full length wild type JAK1 (ΔN25) (human, UniProt P23458 25-1154); assay: ITC; IFNλR Box1/Box2 peptide binding to purified JAK1 constructs; three independent experiments; conditions not described in the methods; conditions: both partners purified
T3 construct: human JAK1, the 'full length' construct, residues 25-1154 (the N-terminal residues deleted for expression); The results say the 25 N-terminal residues were deleted, the methods give 25-1154; also called FL WT; JAK1 FL WT; source: Sf21 insect cells, baculovirus, purified (HisTrap, TEV cleavage, Superdex 200); not shown: His tag, N-terminal, cleaved

[9] = biological target: T4, full length JAK1 V658F (ΔN25) (human, UniProt P23458 25-1154, V658F); assay: as above; conditions: both partners purified
T4 construct: human JAK1, the 'full length' construct, residues 25-1154, with the cancer-linked mutation V658F in the pseudokinase domain; also called FL V658F; JAK1 FL V658F; source: Sf21 insect cells, baculovirus, purified (HisTrap, TEV cleavage, Superdex 200); not shown: His tag, N-terminal, cleaved

[10] = biological target: T5, JAK1 FERM-SH2 domains (human, UniProt P23458 25-559); assay: as above; conditions: both partners purified
T5 construct: human JAK1 FERM-SH2 domains, residues 25-559; source: Sf21 insect cells, baculovirus, purified (HisTrap, TEV cleavage, Superdex 200); not shown: His tag, N-terminal, cleaved
T5 sequence (P23458 25-559): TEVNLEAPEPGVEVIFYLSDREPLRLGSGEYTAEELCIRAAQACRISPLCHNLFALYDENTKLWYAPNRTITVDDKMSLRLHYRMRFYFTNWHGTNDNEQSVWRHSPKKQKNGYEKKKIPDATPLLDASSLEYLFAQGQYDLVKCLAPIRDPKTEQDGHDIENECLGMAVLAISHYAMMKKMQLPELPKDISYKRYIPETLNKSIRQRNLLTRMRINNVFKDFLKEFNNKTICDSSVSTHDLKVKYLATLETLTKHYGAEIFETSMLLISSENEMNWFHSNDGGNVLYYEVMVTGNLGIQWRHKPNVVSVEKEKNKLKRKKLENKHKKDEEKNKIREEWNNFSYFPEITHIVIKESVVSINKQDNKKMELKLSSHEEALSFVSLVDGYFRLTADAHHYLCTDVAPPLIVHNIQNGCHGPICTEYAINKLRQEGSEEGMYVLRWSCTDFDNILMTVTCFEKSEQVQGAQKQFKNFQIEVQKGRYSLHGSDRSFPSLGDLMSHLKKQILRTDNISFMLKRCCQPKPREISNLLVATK

Chain of JAK1 constructs (P23458 862-1154 limits assumed): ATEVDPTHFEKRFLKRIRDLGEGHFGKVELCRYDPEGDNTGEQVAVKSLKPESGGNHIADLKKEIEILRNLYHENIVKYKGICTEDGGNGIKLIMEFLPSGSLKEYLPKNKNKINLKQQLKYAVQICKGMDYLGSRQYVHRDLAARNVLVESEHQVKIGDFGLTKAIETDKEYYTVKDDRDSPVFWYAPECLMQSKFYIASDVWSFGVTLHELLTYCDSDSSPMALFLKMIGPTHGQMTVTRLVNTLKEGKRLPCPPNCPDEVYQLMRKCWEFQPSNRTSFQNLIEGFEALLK
T4 sequence (P23458 25-1154 V658F): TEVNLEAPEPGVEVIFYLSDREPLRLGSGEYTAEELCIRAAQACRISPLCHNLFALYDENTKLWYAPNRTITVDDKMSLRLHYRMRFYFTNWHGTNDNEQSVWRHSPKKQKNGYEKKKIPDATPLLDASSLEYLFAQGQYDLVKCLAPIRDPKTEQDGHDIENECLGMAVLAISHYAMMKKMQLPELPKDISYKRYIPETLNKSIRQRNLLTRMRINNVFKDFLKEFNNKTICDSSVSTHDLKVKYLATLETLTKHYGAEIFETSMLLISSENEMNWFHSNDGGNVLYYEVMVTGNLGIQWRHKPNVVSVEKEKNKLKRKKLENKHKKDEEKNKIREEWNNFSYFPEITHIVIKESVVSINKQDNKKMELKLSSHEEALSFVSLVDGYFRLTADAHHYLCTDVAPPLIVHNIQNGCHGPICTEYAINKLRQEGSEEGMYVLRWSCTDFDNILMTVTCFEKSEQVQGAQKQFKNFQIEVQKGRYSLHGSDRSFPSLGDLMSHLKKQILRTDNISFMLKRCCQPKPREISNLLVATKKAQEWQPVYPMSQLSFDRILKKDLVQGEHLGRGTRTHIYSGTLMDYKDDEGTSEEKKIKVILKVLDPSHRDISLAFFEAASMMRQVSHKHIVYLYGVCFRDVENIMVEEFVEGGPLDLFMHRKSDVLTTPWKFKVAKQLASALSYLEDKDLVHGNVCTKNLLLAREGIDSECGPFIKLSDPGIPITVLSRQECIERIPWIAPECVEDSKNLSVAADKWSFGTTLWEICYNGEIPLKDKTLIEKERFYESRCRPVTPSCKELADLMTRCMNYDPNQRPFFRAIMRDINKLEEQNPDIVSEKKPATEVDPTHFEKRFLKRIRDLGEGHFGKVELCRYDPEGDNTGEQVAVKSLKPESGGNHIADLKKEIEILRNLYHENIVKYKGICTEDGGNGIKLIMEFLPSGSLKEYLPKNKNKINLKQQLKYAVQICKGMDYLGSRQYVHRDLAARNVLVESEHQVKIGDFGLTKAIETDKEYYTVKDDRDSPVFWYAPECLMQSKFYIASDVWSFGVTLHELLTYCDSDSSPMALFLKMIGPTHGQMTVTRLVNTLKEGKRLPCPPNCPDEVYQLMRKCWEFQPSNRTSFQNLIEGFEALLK
Chain of JAK1 V658F (P23458 25-1154 V658F): as above
Chain of IFNλR (Homo sapiens) (Q8IU57 21-520): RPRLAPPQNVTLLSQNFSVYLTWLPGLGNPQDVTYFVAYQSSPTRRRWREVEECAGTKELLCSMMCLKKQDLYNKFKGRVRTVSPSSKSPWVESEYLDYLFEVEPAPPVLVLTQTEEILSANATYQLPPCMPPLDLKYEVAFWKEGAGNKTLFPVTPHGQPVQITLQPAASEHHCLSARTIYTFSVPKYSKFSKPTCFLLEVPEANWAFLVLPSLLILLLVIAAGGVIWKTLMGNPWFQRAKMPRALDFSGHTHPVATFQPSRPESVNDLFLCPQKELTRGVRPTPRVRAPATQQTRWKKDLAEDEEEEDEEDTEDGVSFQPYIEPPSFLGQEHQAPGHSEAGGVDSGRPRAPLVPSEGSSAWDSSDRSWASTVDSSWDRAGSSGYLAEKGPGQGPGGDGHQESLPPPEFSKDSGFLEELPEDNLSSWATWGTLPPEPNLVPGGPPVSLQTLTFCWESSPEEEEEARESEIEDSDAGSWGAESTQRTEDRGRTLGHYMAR
Chain of JAK1 wild-type and V658F (P23458 25-559 limits assumed, stated change not applied): as the sequence (P23458 25-559) above
T1 sequence (P23458 25-559): as above
T3 sequence (P23458 25-1154, stated change not applied): as the sequence (P23458 25-1154 V658F) above, with F634V counted along it
Chain of JAK1 (wild type constructs) (P23458 862-1154 limits assumed): as the sequence (P23458 862-1154 limits assumed) above

Q: Which Kd [1] does the source give for JAK1 FERM-SH2 (from UniProt P23458) here?
A: Its Kd is 71 nM.

Q: With “IFNλR peptide: peptide representing the IFNλR Box1 and Box2 motifs (human residues K250 - T299) (KTLMGNPWFQRAKMPRALDFSGHTHPVATFQPSRPESVNDLFLCPQKELT)” as the molecule, how does the “affinity (ITC)” value [2] read?
A: The value was “near-identical affinity to that previously reported”.

Q: And the “effect on ATP KM or turnover rate” value [3]?
A: Its value is “no significant differences”.

Q: Which results are given for `N#CCC1(n2cc(-c3ncnc4[nH]ccc34)cn2)CN(C2CCN(C(=O)c3ccnc(C(F)(F)F)c3F)CC2)C1` [itacitinib]?
A: Ki [4]: 0.5 to 2 nM; Ki [5]: 0.5 to 2 nM; Tm change ([6]; 6 µM itacitinib, compared to ATP/Mg2+): further Tm increase

Q: For `Nc1ncnc2c1ncn2[C@@H]1O[C@H](COP(=O)(O)OP(=O)(O)OP(=O)(O)O)[C@@H](O)[C@H]1O` [ATP], which Km ([7]; full-length enzyme) is on record?
A: Its Km is 25 µM.

Q: And the Km ([7]; kinase domain alone)?
A: Its Km is 175 µM.

Q: And the Tm change ([6]; 1 mM ATP and 2 mM MgCl2, compared to EDTA)?
A: Its Tm change is “increased Tm”.

B1: peptide representing the IFNλR Box1 and Box2 motifs (human residues K250 - T299) (peptide, UniProt Q8IU57 250-299, looked up)
peptide: KTLMGNPWFQRAKMPRALDFSGHTHPVATFQPSRPESVNDLFLCPQKELT
notes: human interferon-lambda receptor (IFNλR), intracellular Box1 and Box2 motifs, residues K250-T299; also called IFNλR peptide; interferon lambda box1-box2 peptide
Q: Which results are given for B1?
A: binding result [8]: binds; binding result [9]: binds; binding result [10]: binds
